Consider 20 molecules from patent publication US6506772B1, “Substituted [1,2,4]triazolo[1,5a]pyridine derivatives with activity as adenosine receptor ligands” (Hoffmann-La Roche Inc., priority 2000, dated 2003).

Test [1] addresses T1, human adenosine A2A receptor (Homo sapiens, UniProt P29274).
T1 construct: expressed in transfected cells; host or cells: CHO cells, Semliki Forest virus expression system; membrane preparation
The experiment in a line: Human adenosine A2A receptor [3H]-SCH-58261 binding assay. Conditions: for Ki: affinity to human adenosine A2A receptor, read-out: Ki HA2A; for selectivity (A1/A2a): calculated ratio of the affinity to the HA1 receptor to the HA2a receptor.

A further test deals with T2, HA1 adenosine receptor (Homo sapiens, UniProt P30542).
T2 sequence (P30542 1-326): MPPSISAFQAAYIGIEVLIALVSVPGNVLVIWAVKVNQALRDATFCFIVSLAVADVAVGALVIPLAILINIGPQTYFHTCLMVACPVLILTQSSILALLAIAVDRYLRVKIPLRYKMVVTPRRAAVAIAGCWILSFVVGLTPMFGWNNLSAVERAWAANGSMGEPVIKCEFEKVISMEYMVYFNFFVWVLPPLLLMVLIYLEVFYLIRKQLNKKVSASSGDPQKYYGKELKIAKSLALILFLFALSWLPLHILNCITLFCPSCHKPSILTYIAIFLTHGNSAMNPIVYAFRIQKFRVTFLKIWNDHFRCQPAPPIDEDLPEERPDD
The experiment in a line: Human adenosine A1 receptor affinity (Ki hA1). Format: binding. The note with it: affinity to human adenosine A1 receptor.

T1 sequence (P29274 whole entry): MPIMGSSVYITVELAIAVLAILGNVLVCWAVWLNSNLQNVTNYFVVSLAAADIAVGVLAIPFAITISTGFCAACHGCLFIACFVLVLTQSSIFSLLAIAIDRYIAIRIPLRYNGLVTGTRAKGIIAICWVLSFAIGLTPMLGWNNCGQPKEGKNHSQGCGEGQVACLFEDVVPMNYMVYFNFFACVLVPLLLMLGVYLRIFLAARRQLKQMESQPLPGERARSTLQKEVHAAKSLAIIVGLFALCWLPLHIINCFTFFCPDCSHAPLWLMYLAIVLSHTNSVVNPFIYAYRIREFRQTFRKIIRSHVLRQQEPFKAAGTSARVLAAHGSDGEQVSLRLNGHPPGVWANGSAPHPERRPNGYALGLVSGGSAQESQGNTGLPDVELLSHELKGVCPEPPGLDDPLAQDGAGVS

In general, Ki refers to the dissociation constant of the complex between target and ligand, obtained from inhibition or displacement. Consider `COCCN(CCOC)C(=O)c1cc(N)n2nc(-c3ccc(Cl)o3)nc2c1` [Example 260, 5-Amino-2-(5-chloro-furan-2-yl)-[1,2,4]triazolo[1,5-a]pyridine-7-carboxylic acid bis-(2-methoxy-ethyl)-amide], for which, in test [1], the Ki came to 13.4 nM and the “selectivity (A1/A2a)” value was 20.2. At HA1 adenosine receptor, the affinity, expressed as Ki, was 270 nM.

As for `CCN(Cc1ccccc1)C(=O)c1cc(N)n2nc(-c3ccc(Cl)o3)nc2c1` [Example 261, 5-Amino-2-(5-chloro-furan-2-yl)-[1,2,4]triazolo[1,5-a]pyridine-7-carboxylic acid benzyl-ethyl-amide], the Ki in test [1] turned out to be 2.6 nM; at HA1 adenosine receptor it was 37.7 nM. Also, the “selectivity (A1/A2a)” value in test [1] was 14.7.

Consider `CCN(Cc1ccncc1)C(=O)c1cc(N)n2nc(-c3ccc(Cl)o3)nc2c1` [Example 262, 5-Amino-2-(5-chloro-furan-2-yl)-[1,2,4]triazolo[1,5-a]pyridine-7-carboxylic acid ethyl-pyridin-4-ylmethyl-amide], for which, in test [1], the Ki is 2.9 nM and the “selectivity (A1/A2a)” value is reported as 36.8. The molecule further returned a Ki at HA1 adenosine receptor of 107 nM.

With `Nc1cc(C(=O)N2CC=C(c3ccccc3)CC2)cc2nc(-c3ccc(Cl)o3)nn12` [Example 263, [5-Amino-2-(5-chloro-furan-2-yl)-[1,2,4]triazolo[1,5-a]pyridin-7-yl]-(4-phenyl-3,6-dihydro-2H-pyridin-1-yl)-methanone], in test [1], the Ki came out at 39.8 nM and the “selectivity (A1/A2a)” value is listed as 7.6. For the same molecule, on HA1 adenosine receptor, the affinity corresponds to a Ki of 304 nM.

Consider `CCN(C)C(=O)c1cc(N)n2nc(-c3ccc(Br)o3)nc2c1` [Example 264, 5-Amino-2-(5-bromo-furan-2-yl)-[1,2,4]triazolo[1,5-a]pyridine-7-carboxylic acid ethyl-methyl-amide], for which, in test [1], the Ki came out at 6.5 nM and the “selectivity (A1/A2a)” value is given as 42.7. At HA1 adenosine receptor, this molecule returned a Ki of 277 nM.

In the case of `Nc1cc(C(=O)N2CC=CC2)cc2nc(-c3ccc(Br)o3)nn12` [Example 265, [5-Amino-2-(5-bromo-furan-2-yl)-[1,2,4]triazolo[1,5-a]pyridin-7-yl]-(2,5-dihydro-pyrrol-1-yl)-methanone], in test [1], the Ki came to 7.4 nM and the “selectivity (A1/A2a)” value is 76.2. For the same molecule, on HA1 adenosine receptor, the affinity, expressed as Ki, was 564 nM.

On to `C#CCN(C)C(=O)c1cc(N)n2nc(-c3ccc(Br)o3)nc2c1` [Example 266, 5-Amino-2-(5-bromo-furan-2-yl)-[1,2,4]triazolo[1,5-a]pyridine-7-carboxylic acid methyl-prop-2-ynyl-amide], for which the results for the Ki (in test [1]; on HA1 adenosine receptor) were 3.1 nM and 246 nM, respectively. Besides, the “selectivity (A1/A2a)” value in test [1] is on record as 79.4.

For `C=CCN(C)C(=O)c1cc(N)n2nc(-c3ccc(Br)o3)nc2c1` [Example 267, 5-Amino-2-(5-bromo-furan-2-yl)-[1,2,4]triazolo[1,5-a]pyridine-7-carboxylic acid allyl-methyl-amide], in test [1], the Ki worked out at 4.3 nM and the “selectivity (A1/A2a)” value was 42.0. Besides, at HA1 adenosine receptor, the affinity, expressed as Ki, was 181 nM.

Regarding `CC(C)N(C)C(=O)c1cc(N)n2nc(-c3ccc(Br)o3)nc2c1` [Example 269, 5-Amino-2-(5-bromo-furan-2-yl)-[1,2,4]triazolo[1,5-a]pyridine-7-carboxylic acid isopropyl-methyl-amide], the inhibitory constant (Ki) came to 2.7 nM in test [1] and 110 nM on HA1 adenosine receptor. In test [1], the “selectivity (A1/A2a)” value is 40.9.

For the molecule `CCCCN(C)C(=O)c1cc(N)n2nc(-c3ccc(Br)o3)nc2c1` [Example 271, 5-Amino-2-(5-bromo-furan-2-yl)-[1,2,4]triazolo[1,5-a]pyridine-7-carboxylic acid butyl-methyl-amide], in test [1], the Ki was found to be 6.5 nM and the “selectivity (A1/A2a)” value is on record as 22.9. The Ki on HA1 adenosine receptor was determined as 149 nM.

For the molecule `CCN(C(=O)c1cc(N)n2nc(-c3ccc(Br)o3)nc2c1)C(C)C` [Example 272, 5-Amino-2-(5-bromo-furan-2-yl)-[1,2,4]triazolo[1,5-a]pyridine-7-carboxylic acid ethyl-isopropyl-amide], in test [1], the Ki came to 2.2 nM and the “selectivity (A1/A2a)” value was 36.8. This molecule yielded a Ki at HA1 adenosine receptor of 81 nM.

On to `CC1C=CC(C)N1C(=O)c1cc(N)n2nc(-c3ccc(Br)o3)nc2c1` (stereo not drawn) [Example 273, [5-Amino-2-(5-bromo-furan-2-yl)-[1,2,4]triazolo[1,5-a]pyridin-7-yl]-(2,5-dimethyl-2,5-dihydro-pyrrol-1-yl)-methanone], for which, in test [1], the Ki was determined as 3.9 nM and the “selectivity (A1/A2a)” value was 64.4. On HA1 adenosine receptor, this molecule had a Ki of 251 nM.

As for `C=CCN(CC=C)C(=O)c1cc(N)n2nc(-c3ccc(Br)o3)nc2c1` [Example 274, 5-Amino-2-(5-bromo-furan-2-yl)-[1,2,4]triazolo[1,5-a]pyridine-7-carboxylic acid diallylamide], the values for the Ki (in test [1]; on HA1 adenosine receptor) were 2.8 nM and 116 nM, respectively. For the same molecule, in test [1], the “selectivity (A1/A2a)” value is listed as 41.6.

On to `CC1CCC(C)N1C(=O)c1cc(N)n2nc(-c3ccc(Br)o3)nc2c1` (stereo not drawn) [Example 275, [5-Amino-2-(5-bromo-furan-2-yl)-[1,2,4]triazolo[1,5-a]pyridin-7-yl]-(2,5-dimethyl-pyrrolidin-1-yl)-methanone], for which, in test [1], the Ki amounted to 5.4 nM and the “selectivity (A1/A2a)” value was 38.7. The molecule further yielded a Ki on HA1 adenosine receptor of 209 nM.

As to `CC(C)N(C(=O)c1cc(N)n2nc(-c3ccc(Br)o3)nc2c1)C(C)C` [Example 276, 5-Amino-2-(5-bromo-furan-2-yl)-[1,2,4]triazolo[1,5-a]pyridine-7-carboxylic acid diisopropylamide], the Ki in test [1] turned out to be 10.1 nM; on HA1 adenosine receptor, 229 nM. Further, the “selectivity (A1/A2a)” value in test [1] was 22.6.

Regarding `CCCCN(CC)C(=O)c1cc(N)n2nc(-c3ccc(Br)o3)nc2c1` [Example 277, 5-Amino-2-(5-bromo-furan-2-yl)-[1,2,4]triazolo[1,5-a]pyridine-7-carboxylic acid butyl-ethyl-amide], in test [1], the inhibition constant (Ki) amounted to 3.2 nM and the “selectivity (A1/A2a)” value is reported as 40.3. Also, on HA1 adenosine receptor, the Ki worked out at 129 nM.

`CCCCCN(C)C(=O)c1cc(N)n2nc(-c3ccc(Br)o3)nc2c1` [Example 278, 5-Amino-2-(5-bromo-furan-2-yl)-[1,2,4]triazolo[1,5-a]pyridine-7-carboxylic acid methyl-pentyl-amide]: in test [1], the Ki was determined as 5.6 nM and the “selectivity (A1/A2a)” value is recorded as 16.8. Affinity at HA1 adenosine receptor was put at a Ki of 94.3 nM.

`CN(C)CCN(C)C(=O)c1cc(N)n2nc(-c3ccc(Br)o3)nc2c1` [Example 279, 5-Amino-2-(5-bromo-furan-2-yl)-[1,2,4]triazolo[1,5-a]pyridine-7-carboxylic acid (2-dimethylamino-ethyl)-methyl-amide]: in test [1], the Ki is 124 nM and the “selectivity (A1/A2a)” value was 8.5. Also, the inhibitory constant (Ki) at HA1 adenosine receptor came out at 1060 nM.

As to `Nc1cc(C(=O)N2CC=CC2)cc2nc(-c3nccs3)nn12` [Example 281, (5-Amino-2-thiazol-2-yl-[1,2,4]triazolo[1,5-a]pyridin-7-yl)-(2,5-dihydro-pyrrol-1-yl)-methanone], in test [1], the Ki was found to be 83.7 nM and the “selectivity (A1/A2a)” value was 51.9. Besides, the affinity at HA1 adenosine receptor, expressed as Ki, was 4340 nM.

As to `C#CCN(C)C(=O)c1cc(N)n2nc(-c3nccs3)nc2c1` [Example 282, 5-Amino-2-thiazol-2-yl-[1,2,4]triazolo[1,5-a]pyridine-7-carboxylic acid methyl-prop-2-ynyl-amide], in test [1], the Ki was determined as 85.2 nM and the “selectivity (A1/A2a)” value is 48.5. In addition, affinity on HA1 adenosine receptor was put at a Ki of 4130 nM.
